Source: BindingDB's records for doi:10.1021/cb500956g (University of North Carolina At Chapel Hill, 2015)

Tests used:
Test in all cases: AlphaScreen Assay
Details in all cases: pH 8
[1] = molecular target: Lysine-specific demethylase 5A (Homo sapiens, UniProt P29375)
Description: (§1) In brief, compound plates (1 μL at 10 mM highest concentration; 3-fold, 10-point dilutions in DMSO) were diluted in 1X assay buffer (20 mM TRIS pH 8.0, 25 mM NaCl, 2 mM DTT and 0.05% Tween-20) to 1 mM using a Multimek robotic pipettor (Nanoscreen), and 1 μL was spotted into the wells of 384-well low-volume Proxiplates (PerkinElmer). To these plates was added 9 μL of protein−peptide mix in a 1X assay buffer by Multidrop (Thermo) to bring the final compound concentration to 100 μM, and this was incubated for 30 min at RT. Next, 2 μL of a 1:1 mixture of streptavidin-conjugate donor and nickel-chelate acceptor beads (45μg/mL in 1X assay buffer) were added, and the plates were allowed to incubate for an additional 30 min in the dark at RT. After incubation, the plates were read on an EnVision multilabel reader equipped with an HTS AlphaScreen laser (PerkinElmer).

PHD finger protein 1 = molecular target: T1, PHD finger protein 1 (Homo sapiens, UniProt O43189)
T1 sequence (O43189 whole entry): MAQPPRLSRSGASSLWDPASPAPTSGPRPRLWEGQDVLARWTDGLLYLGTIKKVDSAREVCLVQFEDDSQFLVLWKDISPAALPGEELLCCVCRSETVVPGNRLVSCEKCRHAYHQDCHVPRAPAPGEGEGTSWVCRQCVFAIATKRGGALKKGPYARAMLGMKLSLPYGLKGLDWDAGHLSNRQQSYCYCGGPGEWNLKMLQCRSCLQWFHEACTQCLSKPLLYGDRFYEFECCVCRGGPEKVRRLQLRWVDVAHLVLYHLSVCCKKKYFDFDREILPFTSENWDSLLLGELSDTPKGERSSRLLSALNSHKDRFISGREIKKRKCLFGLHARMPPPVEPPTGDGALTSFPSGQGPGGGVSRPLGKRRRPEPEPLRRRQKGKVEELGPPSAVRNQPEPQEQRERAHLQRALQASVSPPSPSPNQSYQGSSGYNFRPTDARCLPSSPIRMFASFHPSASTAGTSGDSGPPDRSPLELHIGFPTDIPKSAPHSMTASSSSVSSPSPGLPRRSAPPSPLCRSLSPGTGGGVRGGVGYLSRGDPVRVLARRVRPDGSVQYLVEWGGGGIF
Description: as §1

[2] = molecular target: T2, Chromobox protein homolog 7 (Homo sapiens, UniProt O95931)
T2 sequence (O95931 whole entry): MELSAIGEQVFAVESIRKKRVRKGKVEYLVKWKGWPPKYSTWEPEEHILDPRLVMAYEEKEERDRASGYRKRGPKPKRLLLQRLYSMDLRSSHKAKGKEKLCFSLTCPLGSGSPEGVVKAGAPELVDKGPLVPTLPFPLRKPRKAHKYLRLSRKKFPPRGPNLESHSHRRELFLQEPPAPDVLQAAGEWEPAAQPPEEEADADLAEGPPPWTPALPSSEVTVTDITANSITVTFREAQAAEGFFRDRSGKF
Description: as §1

[3] = molecular target: MBT domain-containing protein 1 (Homo sapiens, UniProt Q05BQ5)
Description: as §1

[4] = molecular target: T3, E3 ubiquitin-protein ligase UHRF1 (Homo sapiens, UniProt Q96T88)
T3 sequence (Q96T88 whole entry): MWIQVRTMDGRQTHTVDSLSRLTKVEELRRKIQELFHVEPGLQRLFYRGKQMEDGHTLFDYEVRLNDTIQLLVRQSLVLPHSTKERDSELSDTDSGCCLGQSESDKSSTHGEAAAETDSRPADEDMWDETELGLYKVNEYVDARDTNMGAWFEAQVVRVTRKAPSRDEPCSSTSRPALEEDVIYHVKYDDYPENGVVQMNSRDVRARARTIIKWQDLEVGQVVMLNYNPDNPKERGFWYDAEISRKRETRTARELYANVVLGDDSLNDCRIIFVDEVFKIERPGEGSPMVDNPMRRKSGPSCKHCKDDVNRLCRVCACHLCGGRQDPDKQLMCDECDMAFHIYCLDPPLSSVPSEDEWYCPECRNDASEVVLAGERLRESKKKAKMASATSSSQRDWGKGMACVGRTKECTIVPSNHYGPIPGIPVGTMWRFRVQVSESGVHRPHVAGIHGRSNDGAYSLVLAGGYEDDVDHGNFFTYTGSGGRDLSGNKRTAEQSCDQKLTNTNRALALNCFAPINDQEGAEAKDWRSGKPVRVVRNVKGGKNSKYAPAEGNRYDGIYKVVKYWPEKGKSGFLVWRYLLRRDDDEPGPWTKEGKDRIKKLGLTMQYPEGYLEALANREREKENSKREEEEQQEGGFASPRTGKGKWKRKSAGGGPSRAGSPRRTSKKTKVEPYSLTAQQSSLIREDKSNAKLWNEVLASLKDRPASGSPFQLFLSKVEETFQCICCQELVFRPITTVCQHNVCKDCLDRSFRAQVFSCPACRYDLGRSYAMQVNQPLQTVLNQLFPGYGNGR
Description: as §1

PHD finger protein 23 = PHD finger protein 23 (Homo sapiens, UniProt Q9BUL5)
Description: as §1

PHD finger protein 19 = PHD finger protein 19 (Homo sapiens, UniProt Q5T6S3)
Description: as §1

[5] = molecular target: T4, Lethal(3)malignant brain tumor-like protein 3 (Homo sapiens, UniProt Q96JM7)
T4 sequence (Q96JM7 whole entry): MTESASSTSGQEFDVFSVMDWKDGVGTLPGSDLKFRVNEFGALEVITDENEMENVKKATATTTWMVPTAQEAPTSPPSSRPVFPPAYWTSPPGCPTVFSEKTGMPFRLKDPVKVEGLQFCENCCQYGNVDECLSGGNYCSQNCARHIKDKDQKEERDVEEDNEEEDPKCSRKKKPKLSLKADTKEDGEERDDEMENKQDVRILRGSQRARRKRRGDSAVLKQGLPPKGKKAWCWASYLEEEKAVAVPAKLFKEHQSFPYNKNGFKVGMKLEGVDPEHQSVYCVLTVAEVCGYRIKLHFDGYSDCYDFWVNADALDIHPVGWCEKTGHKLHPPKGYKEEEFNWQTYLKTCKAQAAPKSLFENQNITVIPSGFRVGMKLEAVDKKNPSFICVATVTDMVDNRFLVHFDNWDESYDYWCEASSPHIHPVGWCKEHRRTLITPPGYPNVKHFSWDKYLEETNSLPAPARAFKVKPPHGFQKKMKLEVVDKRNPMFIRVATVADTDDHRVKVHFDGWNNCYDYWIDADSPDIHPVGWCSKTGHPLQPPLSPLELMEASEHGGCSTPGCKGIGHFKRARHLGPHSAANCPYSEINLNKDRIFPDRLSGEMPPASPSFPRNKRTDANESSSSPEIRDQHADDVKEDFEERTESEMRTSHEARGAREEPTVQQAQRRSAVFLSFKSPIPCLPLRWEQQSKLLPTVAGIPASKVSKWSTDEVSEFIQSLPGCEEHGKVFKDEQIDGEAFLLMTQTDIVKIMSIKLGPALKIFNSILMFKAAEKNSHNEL
Description: as §1

Measured: IC50

Chain of PHD finger protein 23 (Q9BUL5 whole entry): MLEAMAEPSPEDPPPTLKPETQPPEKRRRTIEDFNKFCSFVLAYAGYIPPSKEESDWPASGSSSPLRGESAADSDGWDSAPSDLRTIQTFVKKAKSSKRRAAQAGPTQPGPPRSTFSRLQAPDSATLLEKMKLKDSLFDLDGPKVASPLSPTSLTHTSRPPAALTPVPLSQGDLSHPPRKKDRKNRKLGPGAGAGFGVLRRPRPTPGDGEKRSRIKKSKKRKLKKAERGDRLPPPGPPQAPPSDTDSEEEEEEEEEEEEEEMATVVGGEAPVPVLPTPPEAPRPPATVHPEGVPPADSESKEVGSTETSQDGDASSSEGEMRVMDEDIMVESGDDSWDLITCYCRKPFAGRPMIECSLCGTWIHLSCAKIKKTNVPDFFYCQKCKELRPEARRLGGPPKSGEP
Chain of MBT domain-containing protein 1 (Q05BQ5 whole entry, the tested form may be a part): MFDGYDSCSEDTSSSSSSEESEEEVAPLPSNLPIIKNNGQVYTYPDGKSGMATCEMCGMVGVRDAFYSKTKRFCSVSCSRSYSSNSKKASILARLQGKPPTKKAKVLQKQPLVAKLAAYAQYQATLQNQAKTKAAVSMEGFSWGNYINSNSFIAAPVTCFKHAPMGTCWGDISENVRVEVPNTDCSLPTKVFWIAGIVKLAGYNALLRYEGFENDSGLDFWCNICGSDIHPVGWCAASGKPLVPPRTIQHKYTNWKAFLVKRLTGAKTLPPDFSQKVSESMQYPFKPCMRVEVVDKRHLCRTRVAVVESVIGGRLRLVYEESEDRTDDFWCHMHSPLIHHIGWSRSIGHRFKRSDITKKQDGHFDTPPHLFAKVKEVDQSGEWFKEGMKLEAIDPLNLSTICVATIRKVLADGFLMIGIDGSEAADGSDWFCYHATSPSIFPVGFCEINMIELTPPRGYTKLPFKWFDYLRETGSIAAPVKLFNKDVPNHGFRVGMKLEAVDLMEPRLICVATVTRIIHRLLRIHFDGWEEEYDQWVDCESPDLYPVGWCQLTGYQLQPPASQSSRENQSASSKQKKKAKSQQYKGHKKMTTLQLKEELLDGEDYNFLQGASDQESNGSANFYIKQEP
Chain of Lysine-specific demethylase 5A (P29375 whole entry): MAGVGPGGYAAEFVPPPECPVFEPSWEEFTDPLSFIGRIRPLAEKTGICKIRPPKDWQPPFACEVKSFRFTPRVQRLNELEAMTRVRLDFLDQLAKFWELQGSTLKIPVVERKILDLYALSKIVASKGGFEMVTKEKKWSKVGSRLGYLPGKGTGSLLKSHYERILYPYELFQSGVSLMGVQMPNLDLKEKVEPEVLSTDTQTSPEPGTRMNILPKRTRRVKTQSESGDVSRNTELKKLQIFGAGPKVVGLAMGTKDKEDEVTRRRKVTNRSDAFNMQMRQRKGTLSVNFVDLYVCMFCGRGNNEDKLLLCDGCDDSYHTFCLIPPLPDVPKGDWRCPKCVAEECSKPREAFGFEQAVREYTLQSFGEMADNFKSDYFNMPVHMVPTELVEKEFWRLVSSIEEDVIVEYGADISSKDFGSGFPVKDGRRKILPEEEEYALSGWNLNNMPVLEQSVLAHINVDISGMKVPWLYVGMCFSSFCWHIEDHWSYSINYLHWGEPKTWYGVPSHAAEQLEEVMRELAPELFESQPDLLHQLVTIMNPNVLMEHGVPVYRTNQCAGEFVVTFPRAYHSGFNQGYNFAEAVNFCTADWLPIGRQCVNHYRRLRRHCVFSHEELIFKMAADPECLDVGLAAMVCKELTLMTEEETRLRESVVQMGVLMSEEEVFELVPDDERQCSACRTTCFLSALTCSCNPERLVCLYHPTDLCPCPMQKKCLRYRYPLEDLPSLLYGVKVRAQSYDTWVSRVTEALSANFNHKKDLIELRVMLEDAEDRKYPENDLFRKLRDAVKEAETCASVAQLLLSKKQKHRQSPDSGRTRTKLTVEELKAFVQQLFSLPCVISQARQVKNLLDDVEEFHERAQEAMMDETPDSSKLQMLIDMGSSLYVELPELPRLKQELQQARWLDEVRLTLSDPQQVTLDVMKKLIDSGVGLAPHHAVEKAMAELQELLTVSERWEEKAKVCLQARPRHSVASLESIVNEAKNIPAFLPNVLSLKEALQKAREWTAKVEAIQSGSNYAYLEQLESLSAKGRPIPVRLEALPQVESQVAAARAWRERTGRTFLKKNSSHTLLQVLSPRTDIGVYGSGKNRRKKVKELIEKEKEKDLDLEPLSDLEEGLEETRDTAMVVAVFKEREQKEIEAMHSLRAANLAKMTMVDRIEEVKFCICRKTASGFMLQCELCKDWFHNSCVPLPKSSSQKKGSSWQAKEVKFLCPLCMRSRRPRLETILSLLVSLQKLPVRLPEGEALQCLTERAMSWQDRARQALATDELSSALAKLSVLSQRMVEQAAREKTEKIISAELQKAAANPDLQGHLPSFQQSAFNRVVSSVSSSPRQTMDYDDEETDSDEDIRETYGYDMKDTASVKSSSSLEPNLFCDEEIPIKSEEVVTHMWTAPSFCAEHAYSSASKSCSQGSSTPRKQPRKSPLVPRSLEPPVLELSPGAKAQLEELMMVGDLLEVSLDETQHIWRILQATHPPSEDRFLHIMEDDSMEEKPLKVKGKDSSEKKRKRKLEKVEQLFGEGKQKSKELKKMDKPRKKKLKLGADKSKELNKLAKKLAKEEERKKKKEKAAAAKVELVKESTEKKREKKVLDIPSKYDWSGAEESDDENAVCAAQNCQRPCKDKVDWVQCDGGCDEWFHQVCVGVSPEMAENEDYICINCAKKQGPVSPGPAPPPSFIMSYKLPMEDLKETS

CC(C)(C)NCCCNC(=O)c1ccccc1Br [2-Bromo-N-(3-(tert-butylamino)propyl)benzamide (16)]
> 100 µM: all assays above

CC(C)(C)NCCCCNC(=O)c1cccc(Br)c1 [3-Bromo-N-(4-(tert-butylamino)butyl)benzamide (11)]
> 100 µM: all assays above

CC(C)(C)NCCCCCNC(=O)c1cccc(Br)c1 [3-Bromo-N-(5-(tert-butylamino)pentyl)benzamide (12)]
> 100 µM: all assays above

CC(C)(C)NCCCNC(=O)c1ccc(Br)cc1 [4-Bromo-N-(3-(tert-butylamino)propyl)benzamide (15)]
> 100 µM: all assays above

CC(C)(C)NCCCNC(=O)c1cc(Br)ccn1 [4-Bromo-N-(3-(tert-butylamino)propyl)picolinamide (24)]
> 100 µM: all assays above

CC(C)(C)N1CCN(C(=O)c2cccc(Br)c2)CC1 [(3-Bromophenyl)(4-(tert-butyl)piperazin-1-yl)methanone (10)]
> 100 µM: all assays above

CC(C)(C)NCCCNC(=O)c1cc(C(F)(F)F)ccn1 [N-(3-(Tert-butylamino)propyl)-4-(trifluoromethyl)picolinamide (25)]
> 100 µM: all assays above
